According to PubChem BioAssay AID2060888 (Molecular Pharmacology Branch, DTP, NCI, 2025):
pIC50: −log10 of the molar value.

Tested on: 695427-040-R-J1-PDC complex spheroid viability
Assay: Anticancer human tumor 695427-040-R-J1-PDC patient-derived colon adenocarcinoma cell line growth inhibition [RAS]
Details: for pIC50: curve of first compound; for viability, T/C: stronger effect = lower value; active = viability on the fitted dose curve at most 10% of control; inactive = the rest
Summary of the method: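 Agents were tested in combination matrices in half-log decrements from a top concentration at or near clinical Cmax (10 microM if undetermined). Targets were multi-cell spheroids of tumour lines plus HUVEC and MSC stromal cells.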

[1] = second compound 0.000949 µM, first compound 0.0316 µM
[2] = second compound 0.000949 µM, first compound 0.1 µM
[3] = second compound 0.000949 µM, first compound 0.316 µM
[4] = second compound 0.000949 µM, first compound 1 µM
[5] = second compound 0.000949 µM, first compound 3.16 µM
[6] = second compound 0.000949 µM, first compound 10 µM
[7] = second compound 0.003 µM, first compound 0.0316 µM
[8] = second compound 0.003 µM, first compound 0.1 µM
[9] = second compound 0.003 µM, first compound 0.316 µM
[10] = second compound 0.003 µM, first compound 1 µM
[11] = second compound 0.003 µM, first compound 3.16 µM
[12] = second compound 0.003 µM, first compound 10 µM
[13] = second compound 0.00949 µM, first compound 0.0316 µM
[14] = second compound 0.00949 µM, first compound 0.1 µM
[15] = second compound 0.00949 µM, first compound 0.316 µM
[16] = second compound 0.00949 µM, first compound 1 µM
[17] = second compound 0.00949 µM, first compound 3.16 µM
[18] = second compound 0.00949 µM, first compound 10 µM
[19] = second compound 0.03 µM, first compound 0.0316 µM
[20] = second compound 0.03 µM, first compound 0.1 µM
[21] = second compound 0.03 µM, first compound 0.316 µM
[22] = second compound 0.03 µM, first compound 1 µM
[23] = second compound 0.03 µM, first compound 3.16 µM
[24] = second compound 0.03 µM, first compound 10 µM
[25] = second compound 0.0949 µM, first compound 0.0316 µM
[26] = second compound 0.0949 µM, first compound 0.1 µM
[27] = second compound 0.0949 µM, first compound 0.316 µM
[28] = second compound 0.0949 µM, first compound 1 µM
[29] = second compound 0.0949 µM, first compound 3.16 µM
[30] = second compound 0.0949 µM, first compound 10 µM
[31] = second compound 0.3 µM, first compound 0.0316 µM
[32] = second compound 0.3 µM, first compound 0.1 µM
[33] = second compound 0.3 µM, first compound 0.316 µM
[34] = second compound 0.3 µM, first compound 1 µM
[35] = second compound 0.3 µM, first compound 3.16 µM
[36] = second compound 0.3 µM, first compound 10 µM
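Also: viability read after seven days of drug exposure.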
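For viability, T/C in this document: 100% = DMSO vehicle control viability.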

CC(=O)OC12COC1CC(O)C1(C)C(=O)C(O)C3=C(C)C(OC(=O)C(O)C(NC(=O)OC(C)(C)C)c4ccccc4)CC(O)(C(OC(=O)c4ccccc4)C21)C3(C)C (centres undefined) + CCn1c(-c2cc(N3CCN(C)CC3)cnc2C(C)OC)c2c3cc(ccc31)-c1csc(n1)CC(NC(=O)C1CC1C)C(=O)N1CCCC(N1)C(=O)OCC(C)(C)C2
> 7.50: pIC50 (second compound 0.0949 µM) | pIC50 (second compound 0.3 µM)
7.44: pIC50 (second compound 0.03 µM)
inactive: viability, T/C [1] 78.2% | viability, T/C [2] 73.5% | viability, T/C [3] 68.7% | viability, T/C [4] 57.2% | viability, T/C [5] 73.5% | viability, T/C [6] 52.7% | viability, T/C [7] 81.4% | viability, T/C [8] 70.2% | viability, T/C [9] 59.7% | viability, T/C [10] 60.6% | viability, T/C [11] 56.5% | viability, T/C [12] 65.4% | viability, T/C [13] 75.3% | viability, T/C [14] 53.5% | viability, T/C [15] 52.1% | viability, T/C [16] 44.7% | viability, T/C [17] 49.7% | viability, T/C [18] 34.3% | viability, T/C [19] 58.1% | viability, T/C [20] 38.6% | viability, T/C [21] 42.1% | viability, T/C [22] 44.8% | viability, T/C [23] 42.9% | viability, T/C [24] 36.3% | viability, T/C [25] 36.5% | viability, T/C [26] 36.6% | viability, T/C [27] 36.4% | viability, T/C [28] 33.3% | viability, T/C [29] 32.4% | viability, T/C [30] 29.6% | viability, T/C [31] 35.2% | viability, T/C [32] 28.4% | viability, T/C [33] 33.9% | viability, T/C [34] 26.9% | viability, T/C [35] 30.9% | viability, T/C [36] 27.1%
< 5.00: pIC50 (second compound 0.000949 µM) | pIC50 (second compound 0.003 µM)
6.53: pIC50 (second compound 0.00949 µM)

CCC(CC)c1cc(NC2CCC(N)C2)n2nccc2n1 (centres undefined) + CCn1c(-c2cc(N3CCN(C)CC3)cnc2C(C)OC)c2c3cc(ccc31)-c1csc(n1)CC(NC(=O)C1CC1C)C(=O)N1CCCC(N1)C(=O)OCC(C)(C)C2
> 7.50: pIC50 (second compound 0.0949 µM) | pIC50 (second compound 0.3 µM)
inactive: viability, T/C [1] 104% | viability, T/C [2] 84.6% | viability, T/C [3] 83.7% | viability, T/C [4] 84.6% | viability, T/C [5] 13.7% | viability, T/C [6] 12.3% | viability, T/C [7] 92.8% | viability, T/C [8] 99.8% | viability, T/C [9] 85.1% | viability, T/C [10] 66.4% | viability, T/C [11] 9.9% | viability, T/C [13] 90.3% | viability, T/C [14] 72.1% | viability, T/C [15] 69.9% | viability, T/C [16] 45.8% | viability, T/C [17] 10.7% | viability, T/C [19] 51% | viability, T/C [20] 56.1% | viability, T/C [21] 64.8% | viability, T/C [22] 58.7% | viability, T/C [23] 7.23% | viability, T/C [24] 15.1% | viability, T/C [25] 44.6% | viability, T/C [26] 47.3% | viability, T/C [27] 43.9% | viability, T/C [28] 41.6% | viability, T/C [29] 11% | viability, T/C [30] 15.3% | viability, T/C [31] 29.7% | viability, T/C [32] 39.4% | viability, T/C [33] 45.8% | viability, T/C [34] 27.8% | viability, T/C [35] 6.23% | viability, T/C [36] 15.5%
5.85: pIC50 (second compound 0.003 µM)
active: viability, T/C [12] 10.9% | viability, T/C [18] 12.9%
5.76: pIC50 (second compound 0.000949 µM)
6.14: pIC50 (second compound 0.00949 µM)
5.92: pIC50 (second compound 0.03 µM)
